Reference: patent US11873292B2, “Trans-indoline cyclopropylamine chemical compound, and method for preparation, pharmaceutical composition, and use thereof” (Shanghai Institute of Materia Medica, Chinese Academy of …, priority 2016, dated 2024)

How the values were obtained:
Human recombinant LSD1 = Human recombinant LSD1 (Homo sapiens (Human), UniProt O60341); experiment: LSD1 in vitro activity assay (LANCE Ultra LSD1 Histone H3-Lysine 4 Demethylase Assay); format: biochemical; details: LSD1 inhibition
Human recombinant MAOA = Human recombinant MAOA (Homo sapiens (Human), UniProt P21397); experiment: MAOA in vitro activity experiment (MAO-Glo); format: biochemical
Human recombinant MAOA, sequence (P21397 whole entry): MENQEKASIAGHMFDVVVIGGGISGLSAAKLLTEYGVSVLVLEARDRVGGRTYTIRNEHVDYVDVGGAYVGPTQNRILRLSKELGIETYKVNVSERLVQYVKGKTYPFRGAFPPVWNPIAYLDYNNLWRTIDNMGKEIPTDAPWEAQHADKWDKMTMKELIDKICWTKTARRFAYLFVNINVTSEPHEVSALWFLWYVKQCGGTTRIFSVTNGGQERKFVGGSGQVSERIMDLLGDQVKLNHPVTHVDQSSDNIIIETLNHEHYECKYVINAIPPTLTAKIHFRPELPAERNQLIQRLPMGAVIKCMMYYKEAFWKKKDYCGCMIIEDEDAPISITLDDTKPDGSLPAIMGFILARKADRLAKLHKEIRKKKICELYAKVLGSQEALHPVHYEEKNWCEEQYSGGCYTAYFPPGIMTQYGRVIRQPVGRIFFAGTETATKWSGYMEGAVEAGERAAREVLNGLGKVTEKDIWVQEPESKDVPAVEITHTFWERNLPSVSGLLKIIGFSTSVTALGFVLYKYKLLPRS

human recombinant MAOB = human recombinant MAOB (Homo sapiens (Human), UniProt P27338); experiment: MAOB in vitro activity experiment (MAO-Glo); format: biochemical
human recombinant MAOB, sequence (P27338 whole entry): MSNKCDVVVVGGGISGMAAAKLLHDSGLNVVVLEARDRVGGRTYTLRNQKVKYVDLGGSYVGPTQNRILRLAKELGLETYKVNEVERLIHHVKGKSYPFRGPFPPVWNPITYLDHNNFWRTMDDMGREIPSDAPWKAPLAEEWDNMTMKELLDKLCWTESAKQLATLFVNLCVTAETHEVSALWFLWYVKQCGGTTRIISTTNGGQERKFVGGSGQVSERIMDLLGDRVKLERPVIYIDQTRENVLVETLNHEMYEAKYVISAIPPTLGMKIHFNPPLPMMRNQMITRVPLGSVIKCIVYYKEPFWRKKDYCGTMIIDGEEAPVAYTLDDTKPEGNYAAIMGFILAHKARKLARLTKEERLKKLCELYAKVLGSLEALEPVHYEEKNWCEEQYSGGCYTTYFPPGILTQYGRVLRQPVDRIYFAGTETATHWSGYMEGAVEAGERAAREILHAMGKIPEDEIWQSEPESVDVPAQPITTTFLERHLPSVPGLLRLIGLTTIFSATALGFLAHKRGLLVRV

SMILES | IC50 (Human recombinant LSD1) [nM] | melting point [°C] | IC50 (Human recombinant MAOA) [nM] | IC50 (human recombinant MAOB) [nM]
CC(C)(C)OC(=O)c1ccc(CN2CCC(CNC3CC3c3ccc4c(c3)CCN4S(=O)(=O)c3ccccc3)CC2)cc1 (stereo not drawn) [Compound A25, Trans-tert-butyl 4-((4-(2-(1-(phenylsulfonyl))indolin-5-yl)cyclopropylamino)methyl)piperidin-1-yl)methyl) benzoate] | 534 ± 384 | 62 to 65 |  | 
N[C@@H]1C[C@H]1c1ccc2c(c1)CCN2S(=O)(=O)c1ccccc1 (relative stereo) [Compound A1, Trans-2-(1-(phenylsulfonyl)indolin-5-yl)cyclopropylamine] | 1790 ± 88.4 | 190 to 193 |  | 
O=C(c1ccc(-c2ccccc2)cc1)N1CCc2cc([C@@H]3C[C@H]3NCC3CCNCC3)ccc21 (relative stereo) [Compound A47, Trans-biphenyl-4-yl(5-(2-(piperidin-4-ylmethylamino)cyclopropyl)indolin-1-yl)methanone] | 10.2 ± 1.59 | 179 to 180 | > 100000 | 7330 ± 110
O=C(OCc1ccccc1)N1CCc2cc([C@@H]3C[C@H]3NCC3CCNCC3)ccc21 (relative stereo) [Compound A50, Trans-benzyl-5-(2-(piperidin-4-ylmethylamino)cyclopropyl)Indoline-1-carboxylate] | 35.3 ± 3.48 | 215 to 218 | > 100000 | 10700 ± 1220
CC(C)(C)OC(=O)N1CCC(CN[C@@H]2C[C@H]2c2ccc3c(c2)CCN3S(=O)(=O)c2ccccc2)CC1 (relative stereo) [Compound A27, Trans-tert-butyl 4-((2-(1-(phenylsulfonyl)indolin-5-yl)cyclopropylamino)methyl)piperidine-1-carboxylate] | 71.3 ± 4.3 | 60 to 61 | > 100000 | > 100000
O=S(=O)(c1ccc(C(F)(F)F)cc1)N1CCc2cc([C@@H]3C[C@H]3NCC3CCNCC3)ccc21 (relative stereo) [Compound A34, trans-N-(piperidin-4-ylmethyl)-2-(1-(4-(trifluoromethyl)benzenesulfonyl)indolin-5-yl)cyclopropylamine] | 43.3 ± 5.09 | 217 to 221 | > 100000 | > 100000
O=C(O)c1ccc(CN2CCC(CNC3CC3c3ccc4c(c3)CCN4S(=O)(=O)c3ccccc3)CC2)cc1 (stereo not drawn) [Compound A26, Trans-4-((4-(2-(1-(phenylsulfonyl))indolin-5-yl)cyclopropylamino)methyl)piperidin-1-yl) methyl)benzoic acid] | 461 ± 31.9 | 190 to 192 |  | 
O=C(OCc1ccccc1)N1CCC(CN[C@@H]2C[C@H]2c2ccc3c(c2)CCN3S(=O)(=O)c2ccccc2)CC1 (relative stereo) [Compound A28, Trans-benzyl 4-((2-(1-(phenylsulfonyl)indolin-5-yl)cyclopropylamino)methyl)piperidine-1-carboxylate] | 265 ± 80.8 | 90 to 92 |  | 
CC(C)(C)OC(=O)N1CCC(C(=O)N[C@@H]2C[C@H]2c2ccc3c(c2)CCN3S(=O)(=O)c2ccccc2)CC1 (relative stereo) [Compound A29, Trans-tert-butyl 4-(2-(1-(phenylsulfonyl)indolin-5-yl)cyclopropylcarbamoyl)piperidine-1-carboxylate] | 1690 ± 449 | 146 to 148 |  | 
O=C(c1cccc(C(F)(F)F)c1)N1CCc2cc([C@@H]3C[C@H]3NCC3CCNCC3)ccc21 (relative stereo) [Compound A48, Trans-(5-(2-(piperidin-4-ylmethylamino)cyclopropyl)indolin-1-yl)(3-(trifluoromethyl)phenyl) methanone] | 25.57 ± 0.11 | 230 to 232 | > 100000 | 42600 ± 780
